For one compound, IC50 results are on record in patent US4957940A, “Bicyclo heptane and bicyclo octane substituted inhibitors of cholesterol synthesis” (Warner-Lambert Company, priority 1989, dated 1990).

The test system of the assay is biosynthesis of cholesterol. Put plainly: CSI screen: inhibition of cholesterol biosynthesis (14C-acetate incorporation into nonsaponifiable lipid by rat liver homogenate). The assay is classed as biochemical. The settings on record: 50% inhibition of sterol synthesis over a one-hour period. How it is done: The ability of compounds of the present invention to inhibit the biosynthesis of cholesterol was measured by a method (designated CSI screen) which utilizes the procedure described by R. E. Dugan, et al, Archiv. Biochem. Biophys., (1972), 152, 21-27. In this method, the level of HMG-CoA enzyme activity in standard laboratory rats is increased by feeding the rats a chow diet containing 5% cholestryramine for four days, after which the rats are sacrificed.
The rat livers are homogenized, and the incorporation of […] into nonsaponifiable lipid by the rat liver homogenate is measured. The micromolar concentration of compound required for 50% inhibition of sterol synthesis over a one-hour period is measured, and expressed as an IC50 value.

As usually defined, the IC50 is the concentration needed to halve the response being measured. Compound `C=C1CC2(C)CC1C(c1ccccc1)=C2/C=C/[C@@H]1C[C@@H](O)CC(=O)O1` (relative stereo) had an IC50 of 440 nM. This counts as sub-micromolar.
